The record followed here is PubChem BioAssay (NCI).

Holding throughout (assay): growth of human tumour cells (NCI), 48 h
In assay [1] the test system is A498 renal.
Assay [2] deals with OVCAR-3 ovarian.
Assay [3] concerns RPMI-8226 leukemia.
The subject of assay [4] is SF-295 CNS.
Assay [5] has as its system NCI-H23 lung.
The test system of assay [6] is MALME-3M melanoma.
For assay [7], the system named is COLO 205 colon.
Assay [8] concerns IGROV1 ovarian.
Assay [9] deals with SK-MEL-5 melanoma.
The subject of assay [10] is KM12 colon.

“And” between values parts separate entries of the source, which are not always exact repeats. Equal entries are not always repeated.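 Grown in 96-well plates, cells were treated for 48 hours with each compound at five concentrations. Insufficient inhibition: endpoint recorded as highest concentration tested. The concentration for 50% growth inhibition is given as GI50. At the TGI there is no net growth.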

Turning to `Nc1n[nH]c2ccc([C@H]3[C@@H]4C5CCC(C5)[C@@H]4c4c(ccc5[nH]ncc45)N3S(=O)(=O)C3CC3)cc12` (some centres not stated), the GI50 is 0.108 µM in assay [1]; 0.181 µM in [2]; 0.176 µM in [3]; 0.136 µM in [4]; 0.225 µM in assay [5]; 0.326 µM in [6]. Also, the GI50 was 0.193 µM in [7], 0.269 µM in assay [8], 0.251 µM in assay [9] and 0.199 µM in assay [10]. Also, the TGI in assay [1] was 0.384 µM; in assay [2], 7.16 µM; in [3] it was 7.46 µM; in [4], 1.32 µM; in [5], 9.31 µM; in assay [6], 40.9 µM. For the same compound, the TGI in assay [7] was 6.31 µM; in assay [8], above 38.7 µM; in assay [9], 1.29 µM; in assay [10], 6.32 µM.
With `COc1ccc2c(c1)OC(N)=C(C#N)C2c1ccc(F)c(F)c1` (configuration not stated), the GI50 in assay [1] is 0.231 µM; in assay [2] it was 0.324 µM; in assay [3] it was 0.455 µM; in [4], 0.393 µM; in assay [5], 1.15 µM; in assay [6] it was 0.619 µM. Further, the GI50 was 0.437 µM in assay [7], 0.715 µM in assay [8], 0.415 µM in assay [9] and 0.349 µM in assay [10]. The TGI in assay [1] was 5.96 µM; in assay [2], 3.4 µM; in [3] it was 31.7 µM; in assay [4], above 52.4 µM; in assay [5], above 100 µM; in assay [6], 77.4 µM. The TGI in assay [7] is 5.2 µM; in assay [8], above 100 µM; in [9], 29.7 µM; in [10], 26 µM.
Regarding `C=CCC1=C2CCCCC2CCC1=O` (configuration not stated), the TGI in assay [1], in assay [2], in assay [3], in [4], in assay [5] and in assay [6] was above 100 µM each time. Also, the TGI in [7], in assay [8], in assay [9] and in assay [10] was above 100 µM in each case.
Regarding `CCCC(c1cc(C(C)(C)C)c(O)cc1C)c1cc(C(C)(C)C)c(O)cc1C`, the TGI amounted to 4.51 µM in assay [1]; 3.93 µM in assay [2]; 5.77 µM in assay [3]; 6.11 µM in [4]; 6.24 µM in [5]; 9.78 µM in [6]. The TGI in assay [7] came out at 5.4 µM; in assay [8] it was 14.6 µM; in assay [9] it was 3.26 µM; in assay [10], 11.1 µM.
On to `Nc1c2ccccc2nc2nccnc12`, for which the TGI in assay [1], in [2], in [3], in [4], in assay [5] and in assay [6] was above 100 µM each time. Moreover, the TGI in assay [7], in assay [8], in assay [9] and in assay [10] was above 100 µM in each case.
`Nc1ncnc2occ(-c3ccc(NC(=O)Nc4cc(C(F)(F)F)ccc4F)cc3)c12`: the GI50 is 1.09 µM and 0.506 µM in [1]; 5.44 µM and 3.61 µM in [2]; 6.29 µM and 5.04 µM in assay [3]; 4.97 µM and 3.23 µM in [4]; 4.62 µM and 2.09 µM in assay [5]; 7.15 µM and 4.35 µM in assay [6]. In addition, the GI50 in assay [7] was 5.27 µM and 3.74 µM; in assay [8], 3.82 µM and 1.27 µM; in [9] it was 3.56 µM and 3.57 µM; in assay [10] it was 0.133 µM and 0.115 µM. Also, the TGI was 6.14 µM and 2.69 µM in [1]; 12.1 µM and 9.52 µM in assay [2]; 17.7 µM and 16.2 µM in assay [3]; 16.3 µM and 9.43 µM in assay [4]; 12.9 µM and 6.86 µM in [5]; 17.6 µM and 12 µM in assay [6]. Also, the TGI in assay [7] is 9.88 µM and 7.13 µM; in assay [8], 14.1 µM and 7.18 µM; in assay [9], 7.02 µM and 6.93 µM; in [10], 4.81 µM and 3.08 µM.
With `CSc1nc(SC)c2cnn(-c3ccnc4cc(Cl)ccc34)c2n1`, the GI50 was above 100 µM in assay [1]; 6.87 µM in [2]; above 55.7 µM in assay [3]; 5.46 µM in assay [4]; 21.2 µM in assay [5]; 32.9 µM in assay [6]. Besides, the GI50 in [7] was above 100 µM; in assay [8] it was 47.8 µM; in assay [9] it was 51.9 µM; in assay [10], above 100 µM. The TGI is above 100 µM in assay [1]; above 31.2 µM in assay [2]; above 100 µM in [3]; above 100 µM in [4]; above 54.9 µM in assay [5]; above 100 µM in assay [6]. The TGI in assay [7], in assay [8], in assay [9] and in [10] was above 100 µM each time.
Regarding `COc1cc2cc(Oc3ccc(NC(=O)Nc4ccc(F)c(C(F)(F)F)c4)cc3)c(C)nc2cc1OCCN1CCOCC1`, the GI50 in assay [1] is 2.8 µM; in assay [2], 2.94 µM; in assay [3], 1.12 µM; in assay [4], 1.35 µM; in assay [5] it was 1.43 µM; in [6], 1.57 µM. Moreover, the GI50 is 1.87 µM in assay [7], 2.69 µM in assay [8], 1.14 µM in assay [9] and 2.69 µM in [10]. The TGI in assay [1] worked out at 10.2 µM; in assay [2] it was 13.6 µM; in assay [3] it was 4.25 µM; in [4], 4.22 µM; in assay [5] it was 5.88 µM; in assay [6] it was 3.24 µM. Also, the TGI in assay [7] is 4.28 µM; in assay [8], 19.5 µM; in assay [9] it was 2.36 µM; in assay [10], 10.6 µM.
As to `Cc1cc(C)c2c(=O)cc(-c3ccc(F)cc3)[nH]c2n1`, the TGI was 99.5 µM in [1]; above 100 µM in assay [2]; above 100 µM in assay [3]; above 100 µM in [4]; above 100 µM in assay [5]; above 100 µM in assay [6]. Moreover, the TGI is above 100 µM in assay [7], above 100 µM in assay [8], 75.8 µM in [9] and 49.9 µM in [10]. Besides, the GI50 in [2] was 43.5 µM; in assay [4], 50.1 µM; in assay [9] it was 26.2 µM.
Regarding `O=C1NC(=N[C@@H]2C[C@H]2c2ccccc2)S/C1=C\c1ccc2ncccc2c1`, the GI50 was 0.613 µM in assay [1]; 3.01 µM in assay [2]; 1.28 µM in [3]; 1.29 µM in [4]; 3.87 µM in assay [5]; 2.62 µM in assay [6]. Also, the GI50 in assay [7] was 0.813 µM; in [8] it was 2.66 µM; in assay [9], 3.93 µM; in assay [10], 1.47 µM. Further, the TGI in [1] is 4.48 µM; in [2], 10.3 µM; in assay [3], 7.52 µM; in [4], above 12.8 µM; in [5], 20.8 µM; in assay [6] it was 12.1 µM. Moreover, the TGI in assay [7] was 2.35 µM; in assay [8], 11.9 µM; in assay [9], 9.2 µM; in assay [10], above 12.7 µM.
Consider `Cc1cccc2c1NC(=O)[C@@H](NC(=O)[C@H](CCC(F)(F)F)[C@H](CCC(F)(F)F)C(N)=O)N=C2c1cccc(F)c1`, for which the GI50 is 36.6 µM in assay [1]; 33.3 µM in [2]; above 100 µM in assay [3]; 25.8 µM in assay [4]; 30.5 µM in assay [5]; 50 µM in assay [6]. In addition, the GI50 was above 100 µM in [7], 27.7 µM in assay [8], above 100 µM in [9] and above 100 µM in [10]. The TGI in assay [1], in assay [2], in assay [3], in [4], in assay [5] and in [6] was above 100 µM in each case. Moreover, the TGI in [7], in assay [8], in assay [9] and in [10] was above 100 µM in each case.
Turning to `Cn1cnc([N+](=O)[O-])c1Sc1nccn1-c1ccccc1`, the TGI in assay [1] was above 100 µM; in assay [2], above 100 µM; in [3], above 100 µM; in assay [4], above 100 µM; in [5], 79.6 µM; in [6], 62.8 µM. Also, the TGI in assay [7], in [8], in assay [9] and in assay [10] was above 100 µM in each case.
Take `CC1OC(n2ccc3ccc([N+](=O)[O-])cc32)C(O)C(O)C1O` (configuration not stated): the TGI in assay [1], in assay [2], in assay [3], in assay [4], in assay [5] and in assay [6] was above 100 µM throughout. Also, the TGI in assay [7], in [8], in assay [9] and in assay [10] was above 100 µM each time.
As to `O=C1/C(=C\c2ccc(Cl)cc2)CN(C(=O)c2ccccc2)C/C1=C\c1ccc(Cl)cc1`, the GI50 in [1] was 23 µM; in [2], 2.43 µM; in assay [3], 0.274 µM; in assay [4], 3.38 µM; in assay [5] it was 3.13 µM; in assay [6] it was 9.17 µM. In addition, the GI50 in assay [7] is 3.45 µM; in [8] it was 3.22 µM; in [9], 2.39 µM; in assay [10], 1.2 µM. For the same compound, the TGI was above 74 µM in assay [1]; 5.49 µM in assay [2]; 1.36 µM in assay [3]; 57.7 µM in assay [4]; 12.5 µM in assay [5]; 51.7 µM in [6]. For the same compound, the TGI in assay [7] turned out to be 10.5 µM; in [8] it was 9.78 µM; in assay [9], 6.78 µM; in assay [10], 3.18 µM.
Turning to `CC(=O)N[C@@H](Cc1ccc(OP(=O)(O)O)cc1)C(=O)N[C@H]1CCC(=O)N2CCC[C@@H](C(=O)NCc3cccc4ccccc34)N2C1=O`, the GI50 in assay [1], in [2], in [3], in assay [4], in assay [5] and in assay [6] was above 25 µM each time. Besides, the GI50 in assay [7], in assay [8], in [9] and in [10] was above 25 µM in each case. Besides, the TGI in assay [1], in assay [2], in assay [3], in assay [4], in assay [5] and in [6] was above 25 µM in each case. For the same compound, the TGI in assay [7], in [8], in [9] and in [10] was above 25 µM each time.
Consider `CSc1nc(SC)c2c(C)cn(Cc3ccccc3)c2n1`, for which the TGI in assay [1], in [2], in assay [3], in assay [4], in [5] and in assay [6] was above 100 µM throughout. Further, the TGI in assay [7], in assay [8], in [9] and in [10] was above 100 µM throughout.
With `O=C1C2=C(c3ccccc31)C(c1ccccc1Cl)NC(=S)N2` (configuration not stated), the TGI in assay [1], in [2], in assay [3], in assay [4], in [5] and in assay [6] was above 100 µM in each case. In addition, the TGI was above 100 µM in assay [7], above 100 µM in assay [8], 46 µM in assay [9] and above 100 µM in assay [10].
Consider `CC(C)[C@]12O[C@H]1[C@@H]1O[C@]13[C@]1(O[C@H]1C[C@H]1C4=C(CC[C@@]13C)C(=O)OC4)[C@@H]2OC(=O)OC(C)(C)C`, for which the GI50 in [1] was 0.0145 µM; in assay [2] it was 0.0171 µM; in [3], 0.0195 µM; in assay [4], 0.0336 µM; in assay [5], below 0.01 µM; in assay [6], 0.0166 µM. Besides, the GI50 in [7] was 0.014 µM; in [8], 0.0164 µM; in assay [9], 0.0114 µM; in assay [10], 0.116 µM. Also, the TGI in assay [1] was 0.0454 µM; in assay [2] it was 0.883 µM; in [3], above 42.5 µM; in [4] it was above 100 µM; in assay [5], 0.0569 µM; in [6] it was 0.0555 µM. Besides, the TGI in [7] turned out to be 0.0319 µM; in assay [9], 0.0247 µM; in assay [10], 3.41 µM.
